ChEMBL document CHEMBL1121436, “2,4-Diamino-5-benzylpyrimidines as antibacterial agents. 4. 6-Substituted trimethoprim derivatives from phenolic Mannich intermediates. Application to the synthesis of trimethoprim and 3,5-dialkylbenzyl analogues” (J Med Chem, 1980)
Converted amounts (≈) assume the structure as drawn.

Key:
[1] = biological target: T1, Bifunctional dihydrofolate reductase-thymidylate synthase (Plasmodium berghei str. ANKA, UniProt Q27713); assay: Compound was tested for its inhibition against dihydrofolate reductase enzyme of Plasmodium berghei; conditions: read-out: I50
Dihydrofolate reductase = biological target: T2, Dihydrofolate reductase (Rattus norvegicus, UniProt Q920D2); assay: Inhibition against dihydrofolate reductase enzyme of rat liver; conditions: read-out: I50
T2 sequence (Q920D2 whole entry): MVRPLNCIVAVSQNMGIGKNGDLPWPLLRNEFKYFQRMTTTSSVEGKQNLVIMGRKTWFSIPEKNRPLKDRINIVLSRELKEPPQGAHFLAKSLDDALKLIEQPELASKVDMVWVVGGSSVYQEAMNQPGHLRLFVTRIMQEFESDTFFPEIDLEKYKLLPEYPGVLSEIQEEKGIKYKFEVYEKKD

[2] = biological target: T1, Bifunctional dihydrofolate reductase-thymidylate synthase; assay: Tested for the inhibition of Plasmodium berghei dihydrofolate reductase enzyme; conditions: read-out: I50
Shigella dysenteriae = assay: Tested for antibacterial activity against Shigella dysentariae CN1513; type: functional
Proteus vulgaris = assay: Tested for antibacterial activity against Proteus vulgaris CN329; type: functional
Staphylococcus aureus [3] = assay: Tested for antibacterial activity against Staphylococcus aureus CN491; type: functional
Salmonella = assay: Tested for antibacterial activity against Salmonella typhi CN512; type: functional, salmonella typhosa
Streptococcus pyogenes = assay: Tested for antibacterial activity against Streptococcus pyogenes CN10; type: functional
Escherichia coli = assay: Tested for antibacterial activity against Escherichia coli CN314; type: functional
Staphylococcus aureus [4] = assay: Tested for antibacterial activity against Staphylococcus aureus CN491

T1 sequence (Q27713 whole entry): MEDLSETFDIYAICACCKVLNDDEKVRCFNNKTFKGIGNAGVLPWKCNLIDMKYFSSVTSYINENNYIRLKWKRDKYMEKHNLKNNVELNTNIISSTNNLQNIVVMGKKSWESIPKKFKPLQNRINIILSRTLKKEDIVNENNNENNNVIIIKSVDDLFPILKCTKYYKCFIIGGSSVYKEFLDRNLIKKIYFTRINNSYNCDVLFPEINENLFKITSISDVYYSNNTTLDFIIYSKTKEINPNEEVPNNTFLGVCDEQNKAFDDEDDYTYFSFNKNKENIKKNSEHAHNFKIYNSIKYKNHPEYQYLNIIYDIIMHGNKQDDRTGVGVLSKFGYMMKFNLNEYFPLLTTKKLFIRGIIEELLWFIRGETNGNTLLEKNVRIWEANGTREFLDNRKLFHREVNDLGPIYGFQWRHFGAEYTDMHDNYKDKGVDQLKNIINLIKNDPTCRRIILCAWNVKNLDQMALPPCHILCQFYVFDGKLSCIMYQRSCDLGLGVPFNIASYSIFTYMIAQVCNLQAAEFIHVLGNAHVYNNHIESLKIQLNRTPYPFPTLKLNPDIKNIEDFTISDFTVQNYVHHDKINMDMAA

| SMILES | IC50 (Dihydrofolate reductase) [µM] | MIC (Shigella dysenteriae) [µg/mL] | MIC (Proteus vulgaris) [µg/mL] | MIC (Salmonella) [µg/mL] | MIC (Streptococcus pyogenes) [µg/mL] | MIC (Escherichia coli) [µg/mL] | other results |
| --- | --- | --- | --- | --- | --- | --- | --- |
| CCCc1nc(N)nc(N)c1Cc1cc(OC)c(O)c(OC)c1 | – | – | – | – | – | – | IC50 [1]: 1.5 µM |
| COc1cc(Cc2c(N)nc(N)nc2N)cc(OC)c1OC | > 900 | – | – | – | – | – | – |
| COc1cc(Cc2c(N)nc(N)nc2-c2ccccc2)cc(OC)c1O | > 45 | – | – | – | – | – | – |
| COc1cc(Cc2c(N)nc(N)nc2SC)cc(OC)c1OC | – | – | – | – | – | – | IC50 [2]: 20 µM |
| CCCc1nc(N)nc(N)c1Cc1cc(OC)c(OC)c(OC)c1 | 1500 | – | – | – | – | – | – |
| COc1cc(Cc2c(N)nc(N)nc2OC)cc(OC)c1OC | > 100 | > 500 | > 500 | > 500 | 8 (≈ 25 µM) | > 500 | MIC (Staphylococcus aureus [3]): 125 µg/mL (≈ 390 µM) |
| COc1cc(Cc2c(N)nc(N)nc2Oc2ccccc2)cc(OC)c1OC | – | > 500 | > 500 | > 500 | > 500 | > 500 | MIC (Staphylococcus aureus [4]): > 500 µg/mL |
| COc1c(C(C)(C)C)cc(Cc2c(N)nc(N)nc2SC)cc1C(C)(C)C | – | > 500 | > 500 | > 500 | > 500 | > 500 | MIC (Staphylococcus aureus [4]): > 500 µg/mL |
| COc1cc(Cc2c(C)nc(N)nc2N)cc(OC)c1OC | > 400 | – | – | – | – | – | IC50 [1]: 0.34 µM |
| COc1cc(Cc2c(C)nc(N)nc2N)cc(OC)c1O | – | – | – | – | – | – | IC50 [1]: 0.48 µM |
| COc1cc(Cc2c(N)nc(N)nc2-c2ccccc2)cc(OC)c1OC | > 400 | 125 (≈ 341 µM) | > 500 | 250 (≈ 682 µM) | 16 (≈ 43.7 µM) | 250 (≈ 682 µM) | MIC (Staphylococcus aureus [4]): 62 µg/mL (≈ 169 µM) |
